Assay results reported in ChEMBL document CHEMBL2331116, “Microbial transformation of acetyl-11-keto-β-boswellic acid and their inhibitory activity on LPS-induced NO production” (Bioorg Med Chem Lett, 2013).

Legend:
[1] = Cytotoxicity against mouse RAW264.7 cells assessed as cell viability at 100 uM after 24 hrs by MTT assay relative to control; type: cell-based; details: read-out: Activity
RAW264.7 = test: Antiinflammatory activity in mouse RAW264.7 cells assessed as inhibition of LPS-induced NO production after 24 hrs; type: functional, cell-based; details: RAW264.7, 24 h

| IC50 (RAW264.7) | SMILES | viability at 24 h, 100 µM [1] |
| --- | --- | --- |
| 1.5 µM | CC(=O)O[C@@H]1CC[C@@]2(C)[C@@H](C[C@H](O)[C@]3(C)[C@@H]2C(=O)C=C2[C@@H]4[C@@H](C)[C@H](C)CC[C@]4(C)CC[C@]23C)[C@@]1(C)C(=O)O | 84.2% |
| 87.7 µM | CC(=O)O[C@@H]1CC[C@@]2(C)[C@@H](C[C@H](O)[C@]3(C)[C@@H]2C(=O)C=C2[C@@H]4[C@@H](C)[C@H](C)[C@@H](O)C[C@]4(C)CC[C@]23C)[C@@]1(C)C(=O)O | 104% |
| 76.8 µM | CC(=O)O[C@@H]1CC[C@@]2(C)[C@@H](C[C@H](O)[C@]3(C)[C@@H]2C(=O)C=C2[C@@H]4[C@@H](C)[C@H](C)C[C@H](O)[C@]4(C)CC[C@]23C)[C@@]1(C)C(=O)O | 89.8% |
| > 100 µM | CC(=O)O[C@@H]1CC[C@@]2(C)[C@@H](C[C@H](O)[C@]3(C)[C@@H]2C(=O)C=C2[C@@H]4[C@@H](C)[C@H](C)CC[C@]4(C)C[C@H](O)[C@]23C)[C@@]1(C)C(=O)O | 108% |
| > 100 µM | CC(=O)O[C@@H]1CC[C@@]2(C)[C@@H](C[C@H](O)[C@]3(C)[C@@H]2C(=O)C=C2[C@@H]4[C@@H](C)[C@H](C)[C@@H](O)C[C@]4(C)C[C@H](O)[C@]23C)[C@@]1(C)C(=O)O | 103% |

The next lines start with the compound.

| SMILES | IC50 (RAW264.7) | viability at 24 h, 100 µM [1] |
| --- | --- | --- |
| CC(=O)O[C@@H]1CC[C@@]2(C)[C@@H](C[C@H](O)[C@]3(C)[C@@H]2C(=O)C=C2[C@@H]4[C@@H](C)[C@H](C)CC[C@]4(C)[C@H](O)C[C@]23C)[C@@]1(C)C(=O)O | 10.6 µM | 98.1% |
| CC(=O)O[C@@H]1CC[C@@]2(C)[C@@H](CC[C@]3(C)[C@@H]2C(=O)C=C2[C@@H]4[C@@H](C)[C@H](C)[C@@H](O)C[C@]4(C)C[C@H](O)[C@]23C)[C@@]1(C)C(=O)O | > 100 µM | 134% |
| CC(=O)O[C@@H]1CC[C@@]2(C)[C@@H](CC[C@]3(C)[C@@H]2C(=O)C=C2[C@@H]4[C@@H](C)[C@H](C)CC[C@]4(C)CC[C@]23C)[C@@]1(C)C(=O)O [AKBA] | 15.6 µM | 81.2% |
| CN(C)c1ccc(O)c2c1C[C@H]1C[C@H]3[C@H](N(C)C)C(O)=C(C(N)=O)C(=O)[C@@]3(O)C(O)=C1C2=O [MINOCYCLINE] |  | 100% |
